Data set [1] addresses recombinant human AKR1C3 (Homo sapiens (Human), UniProt P42330). The data set can be described thus: AKR1C3 enzyme inhibition assay (Coumberone to Coumberol fluorescence). The data set is classed as biochemical. The conditions noted are these: individual experimental determinations. The procedure:
The AKR1C3-inhibitory activity of the substances of the present invention was measured in the AKR1C3 assay described in the paragraphs below.
Essentially, the enzyme activity is measured by quantification of the Coumberol from Coumberone (Halim, M., Yee, D. J., and Sames, D., J. AM. CHEM. SOC. 130, 14123-14128 (2008) and Yee, D. J., Balsanek, V., Bauman, D. R., Penning, T. M., and Sames, D., Proc. Natl. Acad. Sci. USA 103, 13304-13309 (2006)). In this test, the increase of the highly fluorescent Coumberol by NADPH—(nicotinamide adenine dinucleotide phosphate)-dependent reduction of the non-fluorescent Coumberone by AKR1C3 can be determined.
The enzyme used was recombinant human AKR1C3 (Aldo-keto reductase family 1 member C3) (GenBank Accession No. NM_003739). This was expressed in E. coli as GST (glutathione S transferase) fusion protein and purified by glutathione Sepharose affinity chromatography. The GST was removed by digestion with thrombin and subsequent size exclusion chromatography (Dufort, I., Rheault, P., Huang, X F., Soucy, P., and Luu-The, V., Endocrinology 140, 568-574 (1999)).
For the assay, 50 nl of a 100-fold concentrated solution of the test substance in DMSO were pipetted into a black low-volume 384-well microtiter plate (Greiner Bio-One, Frickenhausen, Germany), 2.0 μl of a solution of AKR1C3 in assay buffer [50 mM potassium phosphate buffer pH 7, 1 mM DTT, 0.0022% (w/v) Pluronic F-127, 0.01% BSA (w/v) and protease inhibitor cocktail (Complete, EDTA-free Protease Inhibitor Cocktail from Roche)] were added and the mixture was incubated for 15 min to allow pre-binding of the substances to the enzyme prior to the enzyme reaction. The enzyme reaction was then started by addition of 3 μl of a solution of NADPH (16.7 μM→final concentration in 5 μl of assay volume is 10 μM) and Coumberone (0.5 μM→final concentration in 5 μl of assay volume is 0.3 μM) in assay buffer, and the resulting mixture was incubated at 22° C. for the reaction time of 90 min. The concentration of the AKR1C3 was adapted to the respective activity of the enzyme preparation and adjusted such that the assay was carried out in the linear range. Typical concentrations were in the region of 1 nM. The reaction was stopped by addition of 5 μl of a stop solution consisting of the inhibitor EM-1404 [F. Labrie et al. U.S. Pat. No. 6,541,463, 2003] (2 μM→final concentration in […] is 1 μM). The fluorescence of the Coumberole was then measured at 520 nm (excitation at 380 nm) using a suitable measuring instrument (Pherastar from BMG Labtechnologies). The intensity of the fluorescence was used as a measure of the amount of Coumberole formed and thus of the enzyme activity of AKR1C3. The data were normalized (enzyme reaction without inhibitor=0% inhibition; all other assay components, but no enzyme=100% inhibition).

Data set [2] has as its target Human CYP17A1 (Homo sapiens (Human), UniProt P05093). The data set can be described thus: Inhibition of CYP17A1 (recombinant enzyme, progesterone hydroxylation, HPLC radio detection). It counts as biochemical. The conditions noted are these: for IC50: read-out: IC50 ± SD CYP17. The procedure:
The inhibition of CYP17A1 by the test compounds was evaluated using a recombinant enzyme. Human CYP17A1 was expressed in E. coli (Ehmer, P. B. et al.; J. Steroid Biochem. Mol. Biol., 75, 57-63 (2000)). The microsomal fraction and 140 μL of phosphate buffer (50 mM Na phosphate, 1 mM MgCl2, 0.1 mM EDTA, 0.1 mM dithiothreitol, pH 7.4) were preincubated separately with a mixture of progesterone (24.95 μM) and ^3H-progesterone (0.05 μM, 101.3 Ci/mmol), […] of an NADPH regeneration system (in phosphate buffer with 10 mM NADP+, 100 mM glucose 6-phosphate and 2.5 U of glucose 6-phosphate dehydrogenase) and the appropriate test substances (in 5 μl of DMSO) at 37° C. for 5 minutes. The reaction was started by addition of the enzyme and, after 30 minutes of incubation at 37° C., stopped by addition of 50 μl of 1N hydrochloric acid.
The steroids were extracted with ethyl acetate. After evaporation of the organic phase, the steroids were taken up in acetonitrile. 16α-Hydroxyprogesterone, 17α-hydroxyprogesterone and progesterone were separated using acetonitrile/water (45:55) as mobile phase on a C18 reverse-phase chromatography column (Nucleodur C18 Gravity, 3 μm, Macherey-Nagel, Düren, Germany) on an HPLC system (Agilent 1100 Series, Agilent Technologies, Waldbronn, Germany). Detection and quantification of the steroids was carried out using a radio flow detector (Berthold Technologies, Bad Wildbad, Germany). The inhibition was calculated using the formula below: […]
Each value was calculated from at least three independent experiments. The final IC50 value was calculated as the mean of 3 or 4 independent IC50 values.

Data set [3] is described as follows: Thermodynamic solubility in aqueous buffer pH 6.5 (shake-flask method). The data set is classed as physicochemical. To be noted: thermodynamic from solid. The procedure: Determination of the Thermodynamic Solubility in Aqueous Buffer pH 6.5 (Shake-Flask Method)
The thermodynamic solubility was determined according to the shake-flask method [literature: Edward H. Kerns and Li Di (2008) Solubility Methods in: Drug-like Properties: Concepts, Structure Design and Methods, p 276-286. Burlington, Mass., Academic Press].
Here, a saturated solution of the active compound in buffer pH 6.5 was prepared and stirred for 24 h to ensure that an equilibrium between the solid and the substance in solution had formed. The solution was then centrifuged, and the concentration of the solution obtained was quantified with the aid of a calibration line.
For the sample, 2 mg of solid substance were weighed out accurately into a 4 ml glass bottle. 1 ml of phosphate buffer pH 6.5 was added. This solution was stirred on a stirrer at room temperature for 24 h. The solution was then centrifuged. To prepare the comparison for the calibration, 2 mg of solid substance were weighed out accurately and dissolved in 30 ml of acetonitrile. After a short ultrasound treatment, the solution was diluted with water to 50 ml.
Sample and comparison were quantified using HPLC with UV detection. […]
The areas of the sample and comparison injections and the calculation of the solubility (in mg/l) were determined using the HPLC software (Waters Empower 2 FR).

Where [4] appears, read: human CYP17A1 expressed in E. coli, mean of 3 or 4 independent IC50 values.

Molecules are shown by their SMILES. Values after ≈ are worked out from the molar mass of the structure shown. Values joined by “and” are separate entries in the source; they are usually repeats but may differ in a detail not shown here. Equal entries are not always repeated. Where two headings read alike, the source gives them in different places.

recombinant human AKR1C3, sequence (P42330 whole entry): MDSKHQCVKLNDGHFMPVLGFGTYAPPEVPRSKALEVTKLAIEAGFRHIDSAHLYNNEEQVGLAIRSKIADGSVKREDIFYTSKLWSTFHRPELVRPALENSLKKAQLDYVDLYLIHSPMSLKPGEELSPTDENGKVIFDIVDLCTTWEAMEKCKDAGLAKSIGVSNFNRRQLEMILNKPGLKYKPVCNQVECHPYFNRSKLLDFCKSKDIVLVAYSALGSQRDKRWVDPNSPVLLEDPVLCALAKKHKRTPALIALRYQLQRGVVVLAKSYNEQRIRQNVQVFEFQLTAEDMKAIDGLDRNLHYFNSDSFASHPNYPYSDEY
Human CYP17A1, sequence (P05093 whole entry): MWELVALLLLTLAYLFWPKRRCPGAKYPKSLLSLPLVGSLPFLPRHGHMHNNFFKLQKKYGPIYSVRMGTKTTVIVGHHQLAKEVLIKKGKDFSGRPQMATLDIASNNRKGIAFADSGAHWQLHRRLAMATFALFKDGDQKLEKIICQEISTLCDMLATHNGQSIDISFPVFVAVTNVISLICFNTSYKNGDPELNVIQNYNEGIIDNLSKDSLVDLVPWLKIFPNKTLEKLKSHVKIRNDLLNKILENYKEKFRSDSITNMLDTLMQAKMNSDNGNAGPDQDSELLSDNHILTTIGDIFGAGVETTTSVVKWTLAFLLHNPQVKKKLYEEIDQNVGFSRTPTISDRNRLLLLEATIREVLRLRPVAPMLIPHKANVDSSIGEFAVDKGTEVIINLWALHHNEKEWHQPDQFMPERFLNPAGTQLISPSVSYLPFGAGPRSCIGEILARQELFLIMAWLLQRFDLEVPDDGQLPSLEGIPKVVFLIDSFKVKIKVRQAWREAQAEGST

Turning to `C[C@]12CC[C@@H]3c4ccc(C(=O)NCC(=O)O)cc4CC[C@H]3[C@@H]1CC=C2c1cncc(F)c1` [Example 10, N-{[17-(5-Fluoropyridin-3-yl)estra-1,3,5(10),16-tetraen-3-yl]carbonyl}glycine], the IC50 in data set [1] was 4.9 nM and 7.3 nM; in data set [2] (setting [4]), 15200 ± 1580 nM.
In the case of `CC1(C)CC[C@@]2(CC[C@H]3[C@@H]4CCc5cc(C(N)=O)ccc5[C@H]4CC[C@@]32C)OC1=O` [EM-1404, reference compound], in data set [3] (aqueous buffer, phosphate buffer pH 6.5, room temperature, 24 h, shake-flask, read-out: solubility), the solubility at 24 h worked out at 0.1 µg/mL (≈ 0.253 µM).
In the case of `CC(C)(CNC(=O)c1ccc2c(c1)CC[C@@H]1[C@@H]2CC[C@]2(C)C(c3cncc(F)c3)=CC[C@@H]12)C(=O)O` [Example 5, 3-({[17-(5-Fluoropyridin-3-yl)estra-1,3,5(10),16-tetraen-3-yl]carbonyl}amino)-2,2-dimethylpropanoic acid], the IC50 was 9.1 nM and 8 nM and 4.3 nM and 3.6 nM in data set [1]; 85500 ± 7700 nM in data set [2] (setting [4]).
In the case of `CN(CCC(=O)O)C(=O)c1ccc2c(c1)CC[C@@H]1[C@@H]2CC[C@]2(C)C(c3cncc(F)c3)=CC[C@@H]12` [Example 2, N-{[17-(5-Fluoropyridin-3-yl)estra-1,3,5(10),16-tetraen-3-yl]carbonyl}-N-methyl-β-alanine], the IC50 is 1.3 nM and 1.4 nM in data set [1]; around 200000 nM in data set [2] (setting [4]). Besides, the “% Inhibition at a concentration of 200 μM substance” value in data set [2] (human CYP17, 200 μM substance) is on record as 49%. The solubility at 24 h in data set [3] (pH 6.5, aqueous buffer) stood at 354 µg/mL (≈ 765 µM).
On to `Cc1cc(C2=CC[C@H]3[C@@H]4CCc5cc(C(=O)N(C)CCC(=O)O)ccc5[C@H]4CC[C@]23C)cnn1` [Example 28, N-Methyl-N-{[17-(6-methylpyridazin-4-yl)estra-1,3,5(10),16-tetraen-3-yl]carbonyl}-β-alanine], for which the IC50 in data set [1] was 0.5 nM.
For the compound `COc1cncc(C2=CC[C@H]3[C@@H]4CCc5cc(C(=O)NCCCC(=O)O)ccc5[C@H]4CC[C@]23C)c1` [Example 30, 4-({[17-(5-Methoxypyridin-3-yl)estra-1,3,5(10),16-tetraen-3-yl]carbonyl}amino)butanoic acid], the IC50 in data set [1] is 7.3 nM and 11.2 nM.
Turning to `CN(CCC(=O)O)C(=O)c1ccc2c(c1)CC[C@H]1[C@@H]3[C@H](O)C=C(c4cncc(F)c4)[C@@]3(C)CC[C@H]21` [Example 27, N-{[17-(5-Fluoropyridin-3-yl)-15β-hydroxyestra-1,3,5(10),16-tetraen-3-yl]carbonyl}-N-methyl-β-alanine], the IC50 in data set [1] is 35.3 nM and 24.2 nM.
As to `C[C@]12CC[C@H](O)CC1=CC[C@@H]1[C@@H]2CC[C@]2(C)C(c3cccnc3)=CC[C@@H]12` [Abiraterone, abiraterone, reference compound], the IC50 in data set [2] (setting [4]) was determined as 29 ± 4 nM.
Consider `C[C@]12CC[C@@H]3c4ccc(C(=O)N5CCC[C@H]5C(=O)O)cc4CC[C@H]3[C@@H]1CC=C2c1cncc(F)c1` [Example 23, N-{[17-(5-Fluoropyridin-3-yl)estra-1,3,5(10),16-tetraen-3-yl]carbonyl}-L-proline], for which the half-inhibitory concentration (IC50) in data set [1] turned out to be 1.9 nM.
As to `C[C@]12CC[C@@H]3c4ccc(C(=O)NCCC(=O)O)cc4CC[C@H]3[C@@H]1CC=C2c1cncc(F)c1` [Example 9, N-{[17-(5-Fluoropyridin-3-yl)estra-1,3,5(10),16-tetraen-3-yl]carbonyl}-β-alanine], the IC50 in data set [1] was 8.3 nM and 8.9 nM (2×). The “IC50 ± SD CYP17” value in data set [2] (setting [4]) is listed as “No inhibition”.

As a reminder, the IC50 is the point on the concentration scale where inhibition reaches its midpoint. In general, solubility refers to how much of the substance goes into solution per volume. One may read the % Inhibition as the relative decrease from the control value, in per cent.

These data come from US9487554B2, “Estra-1,3,5(10),16-tetraene-3-carboxamide derivatives, processes for their preparation, pharmaceutical preparations comprising them and their use for preparing medicaments” (BAYER INTELLECTUAL PROPERTY GmbH, priority 2011, dated 2016).
